Results published in ChEMBL document CHEMBL1201862, “PubChem BioAssay data set” (2004).
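In this assay, cells in 96-well plates receive the compound at five concentrations for 48 hours. Endpoints are linearly interpolated between the surrounding concentrations. At the GI50, growth is halved.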 Calls of active or inactive are those of the source. Cut-off read from the data, not from the text of the source: active = GI50 up to about 1.1 µM and inactive = higher.

Key:
Experiment in all cases: NCI anticancer screen, dose series, 48 h
HCT-116 = system: HCT-116
OVCAR-4 = system: OVCAR-4
OVCAR-5 = system: OVCAR-5
HCT-15 = system: HCT-15
SK-OV-3 = system: SK-OV-3
RPMI-8226 = system: RPMI-8226
SNB-19 = system: SNB-19
EKVX = system: EKVX
PC-3 = system: PC-3
MCF7 = system: MCF7
OVCAR-3 = system: OVCAR-3
A498 = system: A498
NCI-H23 = system: NCI-H23
SF-539 = system: SF-539
SN12C = system: SN12C
CAKI-1 = system: CAKI-1
ACHN = system: ACHN
HT-29 = system: HT-29
UACC-62 = system: UACC-62
OVCAR-8 = system: OVCAR-8

Row | SMILES | GI50 (HCT-116) | GI50 (OVCAR-4) | GI50 (OVCAR-5) | GI50 (HCT-15) | GI50 (SK-OV-3) | GI50 (RPMI-8226) | GI50 (SNB-19) | GI50 (EKVX) | GI50 (PC-3) | GI50 (MCF7) | GI50 (OVCAR-3) | GI50 (A498) | GI50 (NCI-H23) | GI50 (SF-539) | GI50 (SN12C) | GI50 (CAKI-1) | GI50 (ACHN) | GI50 (HT-29) | GI50 (UACC-62) | GI50 (OVCAR-8)
1 | COC(=O)c1cc(-c2ccc(-c3ccc(O)cc3)cc2)cc(-c2ccc(-c3ccc(O)cc3)cc2)c1 | 5.64 µM (inactive) | 13.5 µM (inactive) | 15.7 µM (inactive) | 7.74 µM | 15.6 µM (inactive) | 10.7 µM (inactive) | 15.5 µM (inactive) | 11.9 µM (inactive) | 10.8 µM (inactive) | 4.48 µM (inactive) | 12 µM (inactive) | 16.4 µM (inactive) | 8.51 µM (inactive) | 5.33 µM (inactive) | 13.4 µM (inactive) | 16 µM (inactive) | 8.71 µM (inactive) | – | – | –
2 | O=C1NCN(c2ccccc2)C12CCN(CCCSc1ccc(F)cc1)CC2 | 5.09 µM (inactive) | 13.8 µM (inactive) | 16.9 µM (inactive) | 31.1 µM | > 100 µM (inactive) | 18.6 µM (inactive) | 97.3 µM (inactive) | 28.2 µM (inactive) | 47.2 µM (inactive) | 5.3 µM (inactive) | 55.6 µM (inactive) | 11.4 µM (inactive) | 27.7 µM (inactive) | 17.3 µM (inactive) | 21.4 µM (inactive) | > 51.5 µM (inactive) | 19.7 µM (inactive) | 3.85 µM (inactive) | 27.4 µM (inactive) | > 100 µM (inactive)
3 | Cc1oc2c(c1C)S(=O)(=O)C(C#N)=C(c1ccccc1)N2 | – | > 100 µM (inactive) | > 100 µM (inactive) | > 100 µM | > 100 µM (inactive) | > 100 µM (inactive) | > 100 µM (inactive) | > 100 µM (inactive) | > 100 µM (inactive) | > 100 µM (inactive) | > 100 µM (inactive) | > 100 µM (inactive) | > 100 µM (inactive) | > 100 µM (inactive) | > 100 µM (inactive) | > 100 µM (inactive) | > 100 µM (inactive) | > 100 µM (inactive) | > 100 µM (inactive) | > 100 µM (inactive)
4 | CC(=O)OCCCCn1cc(Cn2ccc(=O)n(Cc3cn(CCCCOC(C)=O)nn3)c2=O)nn1 | > 100 µM (inactive) | > 100 µM (inactive) | > 100 µM (inactive) | > 100 µM | > 100 µM (inactive) | > 100 µM (inactive) | > 100 µM (inactive) | > 100 µM (inactive) | > 100 µM (inactive) | > 100 µM (inactive) | > 100 µM (inactive) | > 100 µM (inactive) | > 100 µM (inactive) | > 100 µM (inactive) | > 100 µM (inactive) | > 100 µM (inactive) | > 100 µM (inactive) | – | > 100 µM (inactive) | > 100 µM (inactive)
5 | C=C1C(=O)OC2/C=C(\CO)C3OC3C3OC3(C)CC(OC(=O)/C(=C/C)COC(C)=O)C12 (configuration not stated) | 1.55 µM (inactive) | 8.3 µM (inactive) | 15.3 µM (inactive) | 2.12 µM | 18.2 µM (inactive) | > 100 µM (inactive) | 15.1 µM (inactive) | 3.81 µM (inactive) | 14 µM (inactive) | 3.94 µM (inactive) | 3.52 µM (inactive) | 13.8 µM (inactive) | 6.93 µM (inactive) | 2.91 µM (inactive) | 3.2 µM (inactive) | 1.95 µM (inactive) | 3.4 µM (inactive) | 3.89 µM (inactive) | 2.86 µM (inactive) | 2.79 µM (inactive)
6 | C=CCn1c(N)c(C#N)c(C#N)c1-c1ccccc1 | – | > 100 µM (inactive) | > 100 µM (inactive) | > 100 µM | > 100 µM (inactive) | > 100 µM (inactive) | > 100 µM (inactive) | 57.7 µM (inactive) | > 100 µM (inactive) | > 100 µM (inactive) | > 100 µM (inactive) | > 100 µM (inactive) | > 100 µM (inactive) | > 100 µM (inactive) | > 100 µM (inactive) | > 100 µM (inactive) | > 100 µM (inactive) | > 100 µM (inactive) | > 100 µM (inactive) | > 100 µM (inactive)
7 | C=CCOC1=C(OCC=C)C(C2COC(C)(C)O2)OC1=O (configuration not stated) | > 100 µM (inactive) | > 100 µM (inactive) | > 100 µM (inactive) | > 100 µM | > 100 µM (inactive) | 45.9 µM (inactive) | > 100 µM (inactive) | > 100 µM (inactive) | > 100 µM (inactive) | > 100 µM (inactive) | > 100 µM (inactive) | > 100 µM (inactive) | > 100 µM (inactive) | > 100 µM (inactive) | > 100 µM (inactive) | 18.7 µM (inactive) | > 100 µM (inactive) | > 100 µM (inactive) | > 100 µM (inactive) | > 100 µM (inactive)
8 | O=C1N/C(=N/N=C\C(O)C(O)C(O)C(O)CO)N/C1=C\c1ccc(Cl)cc1 (configuration not stated) | 9.59 µM (inactive) | 7.46 µM (inactive) | 19.5 µM (inactive) | > 86.5 µM | 16.6 µM (inactive) | > 62.8 µM (inactive) | 2.73 µM (inactive) | 12.1 µM (inactive) | 5.52 µM (inactive) | 4.3 µM (inactive) | 2.18 µM (inactive) | 11.5 µM (inactive) | 5.32 µM (inactive) | 0.332 µM (active) | 1.51 µM (inactive) | > 57.7 µM (inactive) | 21.9 µM (inactive) | 17.4 µM (inactive) | 0.571 µM (active) | 1.53 µM (inactive)
9 | C1CSCCCSCCCSCCCSCCCSCCCSCCCSCCCSC1 | > 100 µM (inactive) | > 100 µM (inactive) | > 100 µM (inactive) | > 100 µM | > 100 µM (inactive) | > 100 µM (inactive) | > 100 µM (inactive) | > 100 µM (inactive) | > 100 µM (inactive) | > 100 µM (inactive) | > 100 µM (inactive) | > 100 µM (inactive) | > 100 µM (inactive) | > 100 µM (inactive) | > 100 µM (inactive) | > 100 µM (inactive) | > 100 µM (inactive) | > 100 µM (inactive) | – | > 100 µM (inactive)
10 | Cc1c2ncccc2cc2oc3ccccc3c(=O)c12 | 31.3 µM (inactive) | 35.8 µM (inactive) | 16.1 µM (inactive) | 41.8 µM | > 100 µM (inactive) | > 100 µM (inactive) | – | 11.1 µM (inactive) | 75.7 µM (inactive) | 5.11 µM (inactive) | 33.9 µM (inactive) | 81.5 µM (inactive) | 47.9 µM (inactive) | > 100 µM (inactive) | 24 µM (inactive) | 17.7 µM (inactive) | 21.9 µM (inactive) | 35.6 µM (inactive) | 50 µM (inactive) | 80.2 µM (inactive)
11 | CSc1ncnc2c1ncn2CCC(=O)O | > 100 µM (inactive) | > 100 µM (inactive) | > 100 µM (inactive) | – | > 100 µM (inactive) | > 100 µM (inactive) | > 100 µM (inactive) | > 100 µM (inactive) | > 100 µM (inactive) | > 100 µM (inactive) | > 100 µM (inactive) | > 100 µM (inactive) | > 100 µM (inactive) | > 100 µM (inactive) | > 100 µM (inactive) | > 100 µM (inactive) | > 100 µM (inactive) | > 100 µM (inactive) | > 100 µM (inactive) | > 100 µM (inactive)
12 | CN(C)c1ccc(/C=C(/NC(=O)c2ccccc2)C(=O)Nc2ccccc2C(=O)O)cc1 | > 100 µM (inactive) | – | > 100 µM (inactive) | > 100 µM | > 100 µM (inactive) | > 100 µM (inactive) | > 100 µM (inactive) | > 100 µM (inactive) | > 100 µM (inactive) | > 100 µM (inactive) | > 100 µM (inactive) | 57 µM (inactive) | > 100 µM (inactive) | > 100 µM (inactive) | > 100 µM (inactive) | > 100 µM (inactive) | > 100 µM (inactive) | > 100 µM (inactive) | > 100 µM (inactive) | > 100 µM (inactive)
13 | CC(=N/N=C/c1ccccn1)/C(C)=N/N=C(C)/C(C)=N/N=C(C)/C(C)=N/N=C(C)/C(C)=N\N=C\c1ccccn1 | > 100 µM (inactive) | > 100 µM (inactive) | > 100 µM (inactive) | > 100 µM | > 100 µM (inactive) | > 100 µM (inactive) | > 100 µM (inactive) | > 100 µM (inactive) | > 100 µM (inactive) | > 100 µM (inactive) | > 100 µM (inactive) | > 100 µM (inactive) | > 100 µM (inactive) | > 100 µM (inactive) | > 100 µM (inactive) | > 100 µM (inactive) | > 100 µM (inactive) | > 100 µM (inactive) | – | > 100 µM (inactive)
14 | CN(Nc1cc(=O)[nH]c(=O)[nH]1)c1ccccc1 | > 100 µM (inactive) | > 100 µM (inactive) | > 100 µM (inactive) | – | > 100 µM (inactive) | > 100 µM (inactive) | > 100 µM (inactive) | > 100 µM (inactive) | > 100 µM (inactive) | > 100 µM (inactive) | > 100 µM (inactive) | > 100 µM (inactive) | > 100 µM (inactive) | > 100 µM (inactive) | > 100 µM (inactive) | > 100 µM (inactive) | > 100 µM (inactive) | > 100 µM (inactive) | > 100 µM (inactive) | > 100 µM (inactive)
15 | COC(=O)c1ccccc1CC(Cc1ccc2c(c1)CCC2)C(=O)OC (configuration not stated) | 49.1 µM (inactive) | > 100 µM (inactive) | > 100 µM (inactive) | > 100 µM | > 100 µM (inactive) | > 100 µM (inactive) | > 100 µM (inactive) | > 100 µM (inactive) | 93.3 µM (inactive) | > 100 µM (inactive) | 70 µM (inactive) | > 100 µM (inactive) | > 100 µM (inactive) | > 100 µM (inactive) | > 100 µM (inactive) | > 100 µM (inactive) | > 100 µM (inactive) | 50.6 µM (inactive) | – | > 100 µM (inactive)
